Key:
[1] = system: HIF2 α; assay: HIF-2α levels in eight other cell lines from patients with VHL mutations; type: cell-based, human; settings: Tempol treatment
[2] = system: HIF-2α; assay: Western blot of HIF-2α in nuclear proteins of 786-0 RCC cells; type: cell-based, human; settings: 786-0 cells, 5 mM, two to four hours, compared to Tempol-H or growth medium (control)
Method: The human sporadic RCC cell line 786-0 was obtained from the American Tissue Culture Collection (ATCC) (Manassas, Va.). This cell line contains a single inactivated VHL allele, produces no VHL protein, is deficient for HIF-la expression, and constitutively expresses HIF-2α. Gnarra et al., Nat. Genet., 7: 85-90 (1994) and Maxwell et al., Nature, 399: 271-275 (1999). Cultures of 786-0 cells were pre-incubated for one hour in KREB's buffer (115 mM NaCl, 5.9 mM KCl, 1.2 mM MgCl2, 1.2 mM NaH2PO4, 1.2 mM Na2SO4, 2.5 mM CaCl2, and 25 mM NaHCO3) at pH 7.4 and with 4.5 g/L of glucose. Cells were then treated for two to four hours with (i) Tempol (5 mM) obtained from Sigma Aldrich (St. Louis, Mo.), (ii) its non-functional hydroxylamine (protonated, reduced) variant: 1,4-dihydroxy-2,2,6,6-tetramethylpiperidine (Tempol-H) (5 mM) (Sigma Aldrich), or (iii) growth medium as a negative control. Cells were harvested, nuclear protein extractions performed, and protein concentrations were measured by BCA assay from Pierce (Rockford, Ill.). Aliquots of extracted nuclear proteins (20 μg) were loaded in a 7.5% polyacrylamide gel and separated by sodium dodecyl sulfate polyacrylamide gel electrophoresis (SDS-PAGE). Proteins were transferred to PVDF membranes, which were then blocked for one to sixteen hours in a solution of 5% dry milk. […]

[3] = system: 786-0 cells (VHL−/−); assay: 786-0 (VHL−/−) subcutaneous tumor growth in SCID/BEIGE mice, Tempol in chow; type: in vivo; settings: 10 mg/g of food, after ten weeks, compared to control mice fed normal chow (P<0.05)
Method: Twenty female SCID/BEIGE mice were injected with 786-0 cells (VHL−/−) subcutaneously on the right flank, as described in Example 2. Starting on the day of injection, a control group of ten injected mice were fed standard chow (NIH-031, Zeigler Brothers, Inc. (Gardners, Pa.)) and a group ten injected mice received chow supplemented with Tempol. The Tempol diet supplement was made by a cold press technique from powdered Tempol uniformly mixed with bacon-flavored mouse chow (Bio-Serv Inc. (Frenchtown, N.J.)) providing a Tempol concentration of 10 mg/g of food. Bacon-flavored chow without Tempol was also added to the control diet. The volume of the tumors and the weight of the mice were recorded once a week for more than ten weeks. Tumor volumes as a function of time are depicted in FIG. 3. When the tumor volumes of the control group reached 1 cm^3, the tumors of all mice were harvested and fast-frozen or paraffin embedded for further experiments.

[4] = system: 786-0 (VHL−/−) cells; assay: 786-0 (VHL−/−) subcutaneous tumor growth in SCID/BEIGE mice, Tempol in drinking water; type: in vivo; settings: 2 mM in drinking water
Method: The tumor inhibitory effect of stable nitroxides were studied in vivo using mice with mutations in the Prkdc gene (SCID, which is associated severe combined immunodeficiency), and bg (BEIGE) gene. Twenty female SCID/BEIGE mice (C.B-Igh-1b/GbmsTac-Prkdc^scid-Lyst^bg N7 (CBSCBG) from Taconic (Hudson, N.Y.)) were injected with about 8 million 786-0 (VHL−/−) cells subcutaneously on the right flank. Starting on the day of injection, Tempol was diluted in PBS and added twice a week to the water bottle feeding a group of ten injected mice. The final concentration of Tempol in water was 2 mM. The control group of ten remaining mice received an equivalent amount of PBS in water twice a week. The volume of the tumors and weight of the mice were recorded once a week for up to 100 days. When the control group tumor volume reached 1 cm^3, tumors of 8 mice maintained as controls were harvested. At the same time, 4 of the animals maintained on Tempol were harvested and fast-frozen or paraffin embedded for further experiments. The average tumor volume as a function of time for each group is depicted in FIG. 2.

In the case of `CC1(C)CC(O)CC(C)(C)N1[O]` [Tempol, 4-hydroxy-2,2,6,6-tetramethylpiperidine-1-oxyl], the “HIF2 α levels” value [1] is reported as “reduced HIF2 α levels significantly”, the HIF-2α levels [2] is reported as “significantly reduced” and the tumor growth [3] is reported as “reduced by a statistically significant amount”. For the same molecule, the “tumor size when sacrificed at the 80 day time point” value ([4]; 80 days, versus control animals) was “smaller tumors”, the “average tumor volume as compared to the control group” value ([4]; SCID/BEIGE mice, up to 100 days) was “markedly lower average tumor volume” and the “tumor size at 100 days” value ([4]; four mice maintained up to 100 days) was “quite small”.
